Measured values: US20200129531A1, “USE OF WITHANIA SOMNIFERA EXTRACT TO PROTECT AGAINST AIR POLLUTION RELATED DISEASES” (DSM IP Assets B.V., priority 2017, published 2020)

Experiments:
IL-8 = IL-8 secretion of A549 cells treated with Diesel Particulate Matter; format: cell-based, human
Excerpt: (§1) The human bronchial epithelial cell line BEAS-2B was from ATCC (American Type Culture Collection, Manassas, Va.) and cultured in Bronchial Epithelial cell Growth Medium (BEGM, Lonza, Wakersville, Md.) in CellBIND® surface plastic flasks (Corning Inc., Corning, N.Y.). The adenocarcinomic human alveolar basal epithelial A549 cell line was obtained from ATCC and cultured in Kaighn's Modification of Ham's F-12 Medium (F-12K medium) (Life Technologies, USA), supplemented with 10% FBS (Sigma, Saint-Louis, Mo.). These cells were cultured at 37° C. in a humidified atmosphere containing 5% CO2.
(§2) BEAS-2B cells were seeded in 12-well CellBIND® surface culture plates (Corning Inc.) at 3 to 4×10^5 cells per well. A549 cells were seeded in 12-well plates at 2×10^5 cells per well.
(§3) Diesel Particulate Matter (Standard Reference Material SRM 1650b, National Institute of Standards & Technology, NIST, Gaithersburg, Md.) at 80 mg/ml DMSO (100%) were sonicated for 5 min and thereafter diluted 400 fold in medium. This dilution was twofold further diluted for the assay.
(§4) After 24 h, cells were treated with the diluted Diesel Particulate Matter at 100 μg/ml and in the presence of different concentrations of Withania somnifera extracts, other plant extracts, fractions and compounds as indicated. The final DSMO concentrations were 0.175%.
(§5) Untreated cells or cells treated with 0.175% DMSO were used as controls. After 24 h, cell supernatants were collected.
(§6) The concentrations of IL-6 and IL-8 in the supernatants were determined by Luminex kits (BIO-RAD Laboratories, Hercules, Calif.) and used in the LiquiChip Workstation IS 200 (Qiagen, Hilden, Germany). The data were evaluated with the LiquiChip Analyser software (Qiagen).

Nrf2 = test: Luciferase reporter assay using H411E-ARE8L cells (Nrf2 activation); settings: Conc. final 0.28 μg/ml
Method: Luciferase Reporter Assay Using H411E-ARE8L Cells:
The medium for H411E-ARE8L cells was Dulbecco's Modified Eagle Medium (DMEM) high glucose containing heat inactivated 10% fetal bovine Serum (FBS). The media was exchanged every two to three-days. The DMEM assay medium used charcoal treated FBS (DMEMct). The transactivation assay was performed in 96 well plates. The plates were seeded with approximately 40′000 cells per well in 100 μl DMEMct and incubated over night at 37° C. Then the test compounds were diluted in DMEDct and given to the cells as described below. The cells were incubated for at least further 16 h at 37° C. and 5% CO2. Cells were equilibrated to room temperature. Lysis of the cells was done by adding 100 μL lysis solution, Steady-Glo© luciferase buffer according to the manufacturer (Promega) containing 0.5 mM DTT per well and incubated for 10 min at room temperature with gentle shaking. The luminescence was measured within 2 hours after incubation on a luminometer (Mithras, Berthold Technologies).
The negative control were cells in 0.5% DMSO.
All extracts, fractions and pure compounds were tested for concentrations that induce toxicity. Non-toxic concentrations were then selected for treating cells as describes in the methods section.

MCP-1 = MCP-1 secretion of A549 cells treated with Diesel Particulate Matter; format: cell-based, human
Excerpt: The human bronchial epithelial cell line BEAS-2B was from ATCC (American Type Culture Collection, Manassas, Va.) and cultured in Bronchial Epithelial cell Growth Medium (BEGM, Lonza, Wakersville, Md.) in CellBIND® surface plastic flasks (Corning Inc., Corning, N.Y.). The adenocarcinomic human alveolar basal epithelial A549 cell line was obtained from ATCC and cultured in Kaighn's Modification of Ham's F-12 Medium (F-12K medium) (Life Technologies, USA), supplemented with 10% FBS (Sigma, Saint-Louis, Mo.). These cells were cultured at 37° C. in a humidified atmosphere containing 5% CO2. BEAS-2B cells were seeded in 12-well CellBIND® surface culture plates (Corning Inc.) at 3 to 4×10^5 cells per well. A549 cells were seeded in 12-well plates at 2×10^5 cells per well. […] This dilution was twofold further diluted for the assay. After 24 h, cells were treated with the diluted Diesel Particulate Matter at 100 μg/ml and in the presence of different concentrations of Withania somnifera extracts, other plant extracts, fractions and compounds as indicated. The final DSMO concentrations were 0.175%. Untreated cells or cells treated with 0.175% DMSO were used as controls. After 24 h, cell supernatants were collected.

BEAS-2B cells = test: Toxicity / cell survival of BEAS-2B cells; format: cell-based, human; settings: at concentrations higher than 0.3 μg/ml
Method: (§7) Cell survival assays of the BEAS-2B and A549 cells were performed with AlamarBlue® Cell Viability Reagent (ThermoFisher Scientific) according to the protocol of the manufacturer. Non-toxic concentrations of the extracts, fractions and single compounds were selected for the assays.

A549 cells = test: Toxicity / cell survival of A549 cells; format: cell-based, human; settings: concentrations higher than 0.31 μg/ml
Method: as §7

IL-6 [1] = test: IL-6 secretion of A549 cells treated with Diesel Particulate Matter; format: cell-based, human
Excerpt: as §1, §2, §3, §4, §5, §6

IL-6 [2] = test: IL-6 secretion of BEAS-2B cells treated with Diesel Particulate Matter; format: cell-based, human
Excerpt: as §1, §2, §3, §4, §5, §6

PGE2 = PGE2 secretion of BEAS-2B cells treated with Diesel Particulate Matter; format: cell-based, human; settings: Table 10; 0.3125 μg/ml + PM 100 μg/ml, BEAS-2B, 24 h
Excerpt: as §1, §2, §3, §4, §5
Secreted PGE2 was determined by Enzyme Immuno Assay (EIA) (Cayman Chemicals, Ann Harbor, […].).

[3] = Table 7, 0.3125 μg/ml + PM 100 μg/ml, A549, 24 h
[4] = Table 9, 0.3125 μg/ml + PM 100 μg/ml, A549, 24 h
[5] = Table 5, 0.3125 μg/ml + PM 100 μg/ml, A549, 24 h
[6] = Table 3, 0.3125 μg/ml + PM 100 μg/ml, 24 h

## CC1=C(CO)C(=O)O[C@@H]([C@@H](C)[C@H]2CC[C@H]3[C@@H]4C[C@H]5O[C@]56[C@@H](O)C=CC(=O)[C@]6(C)[C@H]4CC[C@]23C)C1 [Withaferin A, withaferin A]
IL-8; A549, PM-induced, 0.31 μg/ml
  inhibition of IL-8 secretion (in words): highest inhibition of the pure compounds
IL-8; [3]
  IL-8: 106.7 pg/mL
  IL-8 % of PM + DMSO: 39%
Nrf2
  Nrf-2 activity, Average: 32053 relative units of luciferase fluorescence
MCP-1; A549
  effect on PM-induced MCP-1 secretion (in words): significant decrease
MCP-1; [4]
  MCP-1: 632 pg/mL
  MCP-1 % of PM + DMSO: 66%
BEAS-2B cells
  toxicity to BEAS-2B cells: toxic
A549 cells
  toxicity to A549 cells: toxic
IL-6 [1]; A549
  effect on PM-induced IL-6 secretion (in words): decrease
IL-6 [1]; [5]
  IL-6: 3.5 pg/mL
  IL-6 % of PM + DMSO: 29%
IL-6 [2]; 0.3 μg/ml
  effect on PM-induced IL-6 secretion (in words): lowered
IL-6 [2]; [6]
  IL-6: 19.4 pg/mL
  IL-6 % of PM + DMSO: 77%
PGE2
  PGE2: 33.2 pg/mL
  PGE2 % of PM + DMSO: 87%
